Consider 5 compounds from publication PMC6272981, “A Selective Cyclic Peptidic Human SIRT5 Inhibitor” (Molecules, 2016).

For assay [1], the system named is SIRT3. The conditions noted are these: cited from earlier work.
Assay [2] relates to SIRT1. The conditions noted are these: cited from earlier work.
Assay [3] has as its system SIRT2. Particulars: cited from earlier work.
Assay [4] concerns SIRT5. Particulars: SIRT5 desuccinylation assay; cited from earlier work.
For assay [5], the target named is T1, human recombinant His6-SIRT2 (Homo sapiens, UniProt Q8IXJ6).
T1 construct: purchased Cayman Chemical (Ann Arbor, Michigan, USA)
T1 sequence (Q8IXJ6 1-389): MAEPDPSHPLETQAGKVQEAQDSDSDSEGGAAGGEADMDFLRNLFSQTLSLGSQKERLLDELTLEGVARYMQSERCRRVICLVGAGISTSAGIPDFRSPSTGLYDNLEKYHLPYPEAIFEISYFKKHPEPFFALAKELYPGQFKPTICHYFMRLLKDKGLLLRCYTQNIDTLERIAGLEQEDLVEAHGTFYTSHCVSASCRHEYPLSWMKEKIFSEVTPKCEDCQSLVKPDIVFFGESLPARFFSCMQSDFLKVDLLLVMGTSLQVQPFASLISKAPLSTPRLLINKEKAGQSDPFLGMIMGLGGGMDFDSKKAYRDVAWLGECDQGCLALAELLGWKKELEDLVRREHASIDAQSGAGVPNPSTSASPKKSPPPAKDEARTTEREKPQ
As to the kind of experiment: HPLC-based in vitro sirtuin inhibition assay, SIRT2-catalyzed deacetylation. It is filed as biochemical. The conditions noted are these: His6-SIRT2 309 nM, 0.5 mM β-NAD+, 0.39 mM acetyl-lysine p53 peptide substrate, 37 °C, 12 min; Dixon plots. From the text: (§1) The following materials were purchased from commercial vendors for the sirtuin inhibition assay and the pronase digestion assay, and were used as received without further treatment. Sigma-Aldrich China: the active human recombinant His6-SIRT1, Trizma, Hepes, β-NAD^+, a 1.0 M solution of MgCl2 (molecular-biology grade), the pronase from Streptomyces griseus; Cayman Chemical (Ann Arbor, Michigan, USA): the active human recombinant GST-SIRT1, the active human recombinant His6-SIRT2, the active human recombinant His6-SIRT3, the active human recombinant GST-SIRT5, the active human recombinant His6-SIRT6; TCI Shanghai: D,L-dithiothreitol (DTT); Alfa Aesar China: NaCl, KCl.
(§2) The peptide substrates prepared and used in the sirtuin inhibition assay were: the SIRT1/2/3 substrate H2N-HK-[N^ε-acetyl-lysine]-LM-COOH corresponding to amino acids 380–384 of the human p53 protein acetylated at K^382; the SIRT5 substrate CH3CONH-AR-[N^ε-succinyl-lysine]-ST-CONH2 corresponding to amino acids 7–11 of the human histone H3 protein succinylated at K^9; the SIRT6 substrate H2N-EALPK-[N^ε-myristoyl-lysine]-TGGPQ-CONH2 corresponding to amino acids 15–25 of the human tumor necrosis factor α (TNFα) myristoylated at K^20.
(§3) The HPLC-based sirtuin inhibition assay that our laboratory has been using over past several years was employed in the current study and was performed as described previously. […]

Assay [6] addresses T2, human recombinant GST-SIRT5 (Homo sapiens, UniProt Q9NXA8).
T2 construct: purchased Cayman Chemical (Ann Arbor, Michigan, USA)
T2 sequence (Q9NXA8 37-310): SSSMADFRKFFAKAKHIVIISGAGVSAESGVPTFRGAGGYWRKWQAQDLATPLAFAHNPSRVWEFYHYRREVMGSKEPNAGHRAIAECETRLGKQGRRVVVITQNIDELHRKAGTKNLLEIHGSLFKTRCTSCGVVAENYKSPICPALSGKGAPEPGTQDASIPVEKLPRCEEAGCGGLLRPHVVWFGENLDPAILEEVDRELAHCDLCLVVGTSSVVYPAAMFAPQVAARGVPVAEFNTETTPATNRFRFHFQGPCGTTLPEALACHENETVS
As to the kind of experiment: HPLC-based in vitro sirtuin inhibition assay, SIRT5-catalyzed deacylation (desuccinylation). Type of assay: biochemical. The conditions noted are these: GST-SIRT5 370 nM, 0.8 mM β-NAD+, 0.88 mM succinyl-lysine H3 peptide substrate, 37 °C, 5 min; estimated from Dixon plots.
From the text: as §1, §2, §3

In assay [7] the target is T3, human recombinant His6-SIRT6 (Homo sapiens, UniProt Q8N6T7).
T3 construct: purchased Cayman Chemical (Ann Arbor, Michigan, USA)
T3 sequence (Q8N6T7 whole entry): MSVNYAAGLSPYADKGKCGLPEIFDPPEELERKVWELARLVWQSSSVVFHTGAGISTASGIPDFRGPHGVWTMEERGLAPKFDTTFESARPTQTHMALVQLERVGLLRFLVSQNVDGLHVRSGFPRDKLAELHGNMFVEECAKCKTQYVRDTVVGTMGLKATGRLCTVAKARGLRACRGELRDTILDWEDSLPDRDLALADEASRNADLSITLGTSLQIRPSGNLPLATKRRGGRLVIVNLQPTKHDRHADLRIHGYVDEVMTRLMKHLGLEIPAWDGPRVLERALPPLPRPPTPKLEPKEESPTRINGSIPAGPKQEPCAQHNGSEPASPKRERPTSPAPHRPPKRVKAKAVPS
As to the kind of experiment: HPLC-based in vitro sirtuin inhibition assay, SIRT6 (demyristoylation). It is filed as biochemical. The conditions noted are these: His6-SIRT6 313 nM, 0.2 mM β-NAD+, 0.02 mM myristoyl-lysine TNFα peptide substrate, 37 °C, 12 min; Dixon plots.
From the text: as §1, §2, §3

In assay [8] the target is T4, human recombinant His6-SIRT1 or GST-SIRT1 (Homo sapiens, UniProt Q96EB6).
T4 construct: His6 or GST (one of the two); purchased Sigma-Aldrich China (His6-SIRT1) or Cayman Chemical (GST-SIRT1)
T4 sequence (Q96EB6 1-747): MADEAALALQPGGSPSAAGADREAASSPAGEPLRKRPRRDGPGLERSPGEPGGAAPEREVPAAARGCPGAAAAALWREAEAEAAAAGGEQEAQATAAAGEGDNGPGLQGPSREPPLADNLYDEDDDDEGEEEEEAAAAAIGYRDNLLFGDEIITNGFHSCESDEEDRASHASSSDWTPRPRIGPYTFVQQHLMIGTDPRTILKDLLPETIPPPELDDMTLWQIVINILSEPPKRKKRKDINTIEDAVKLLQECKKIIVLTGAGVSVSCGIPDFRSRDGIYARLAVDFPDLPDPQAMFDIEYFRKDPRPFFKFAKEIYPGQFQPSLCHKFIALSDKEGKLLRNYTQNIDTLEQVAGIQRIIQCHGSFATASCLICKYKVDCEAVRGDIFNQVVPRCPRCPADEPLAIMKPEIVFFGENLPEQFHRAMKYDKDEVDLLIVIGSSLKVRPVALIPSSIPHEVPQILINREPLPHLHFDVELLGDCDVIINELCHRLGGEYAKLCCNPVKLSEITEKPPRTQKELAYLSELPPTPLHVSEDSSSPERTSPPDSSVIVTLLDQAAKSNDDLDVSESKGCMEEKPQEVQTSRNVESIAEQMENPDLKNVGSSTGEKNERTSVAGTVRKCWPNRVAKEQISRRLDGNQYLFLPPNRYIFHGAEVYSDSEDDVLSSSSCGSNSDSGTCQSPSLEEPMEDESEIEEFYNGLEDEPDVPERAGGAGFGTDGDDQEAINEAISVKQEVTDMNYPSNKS
The assay is described as follows: HPLC-based in vitro sirtuin inhibition assay, SIRT1. The conditions noted are these: SIRT1 320 nM, 0.5 mM β-NAD+, 0.3 mM acetyl-lysine p53 peptide substrate, 37 °C, 10 min; Dixon plots. It is filed as biochemical.
From the text: as §1, §2, §3

Assay [9] deals with T5, human recombinant His6-SIRT3 (Homo sapiens, UniProt Q9NTG7).
T5 construct: purchased Cayman Chemical (Ann Arbor, Michigan, USA)
T5 sequence (Q9NTG7 1-399): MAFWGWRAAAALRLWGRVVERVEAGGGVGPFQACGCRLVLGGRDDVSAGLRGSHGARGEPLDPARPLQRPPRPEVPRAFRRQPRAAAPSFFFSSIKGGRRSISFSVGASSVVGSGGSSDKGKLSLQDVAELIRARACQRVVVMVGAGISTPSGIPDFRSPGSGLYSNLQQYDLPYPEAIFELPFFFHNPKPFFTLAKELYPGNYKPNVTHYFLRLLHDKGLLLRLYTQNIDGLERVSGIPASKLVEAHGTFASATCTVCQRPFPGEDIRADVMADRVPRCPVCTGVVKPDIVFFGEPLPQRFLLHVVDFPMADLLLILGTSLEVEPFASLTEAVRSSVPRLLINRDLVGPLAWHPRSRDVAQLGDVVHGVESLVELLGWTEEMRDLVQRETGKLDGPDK
As to the kind of experiment: HPLC-based in vitro sirtuin inhibition assay, SIRT3. Type of assay: biochemical. The conditions noted are these: His6-SIRT3 320 nM, 3.5 mM β-NAD+, 0.105 mM acetyl-lysine p53 peptide substrate, 37 °C, 10 min; Dixon plots.
From the text: as §1, §2, §3

“And” between values parts separate entries of the source, which are not always exact repeats. Equal values may be shown once. *1 amine or outer side, *2 acyl side, *3 side chain or, on linkers, in order; H or OH if unused. Where a SMILES comes first, the peptide text is derived from it. Bridges are numbered along the chain shown (N, C = ends). [ ]: non-standard residue; d: D form. Suberoyl(Gly)2 = O=C(CCCCCCC(=O)NCC(=O)[*:2])NCC(=O)[*:1]; X1 = O=C(O)CCNC(=S)NCCCC[C@H](N[*:1])C(=O)[*:2]; Suberoyl = O=C(CCCCCCC(=O)[*:2])[*:1]

What is called IC50 is the concentration that gives 50% inhibition. As for `C=CCN1C(=O)/C(=C/c2ccc(-c3cccc(Cl)c3Cl)o2)C(=O)NC1=S` [Compound 3], the IC50 is > 50 µM in assay [1], 5.3 µM in assay [2], 9.7 µM in [3] and 2.3 µM in [4].

`CC(=O)N[C@H]1CCCCNC(=O)CNC(=O)CCCCCCC(=O)NCC(=O)NCCCC[C@@H](C(=O)N[C@H](C(N)=O)[C@@H](C)O)NC(=O)[C@H](CCCCNC(=S)NCCC(=O)O)NC(=O)[C@H](CCCNC(=N)N)NC1=O` [Compound 4] (Ac-KR[X1]KT-NH2; linker 1-4 via Suberoyl(Gly)2): the IC50 in assay [5] is ~9.2 µM and 9.2 µM; in assay [6] it was ~6 µM and 6 µM.

Regarding `CC(=O)N[C@H]1CCCCNC(=O)CCCCCCC(=O)NCCCC[C@@H](C(=O)N[C@H](C(N)=O)[C@@H](C)O)NC(=O)[C@H](CCCCNC(=S)NCCC(=O)O)NC(=O)[C@H](CCCNC(=N)N)NC1=O` [Compound 5] (Ac-KR[X1]KT-NH2; linker 1-4 via Suberoyl), the IC50 is > 200 µM in [7]; > 1000 µM in [5]; > 200 µM in [9]; ~7.5 µM and 7.5 µM in [6]. In assay [8], the “IC50 SIRT1” value was >1000 µM.

For `CC(=O)N[C@@H](C)C(=O)N[C@@H](CCCNC(=N)N)C(=O)N[C@@H](CCCCNC(=S)NCCC(=O)O)C(=O)N[C@@H](CO)C(=O)N[C@H](C(N)=O)[C@@H](C)O` [Compound 6] (Ac-AR[X1]ST-NH2), the IC50 in [7] is > 1000 µM; in assay [5], 96.4 ± 18.5 µM; in assay [9], > 1000 µM; in assay [6], 7.6 ± 1.5 µM. In addition, the “IC50 SIRT1” value in assay [8] was >1000 µM.

Turning to “CH3CONH-AR-(N^ε-thiosuccinyl-lysine)-ST-CONH2”, the half-inhibitory concentration (IC50) in [4] was ~40 µM.
